Key:
[1] = molecular target: T1, wt human LRRK2, catalytic site (Homo sapiens, UniProt Q5S007); assay: TR-FRET LanthaScreen Tb Kinase Activity Assay, LRRK2 inhibition; type: biochemical; conditions: 2 nM wt human LRRK2, 400 nM peptide, 38 μM ATP
T1 construct: wt human LRRK2, catalytic site, catalytic site (ThermoFisher/USA); purchased ThermoFisher
Method in brief: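 Fluorescein-ERM (LRRKtide) peptide (400 nM) phosphorylated by 2 nM wt human LRRK2 catalytic site with 38 μM ATP in 1× Kinase Buffer A, 120 min at room temperature after 15 min compound–kinase preincubation. EDTA plus Tb-anti-pLRRKtide antibody added, read after 60 min; inhibition from TR-FRET emission ratios.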

[2] = tested on: Caco-2 cells; assay: Caco-2 bidirectional permeability; type: in vitro ADME; conditions: for Caco-2 ER: Efflux Ratio=Papp(BA)/Papp(AB); for Caco-2 A2B (10^−6 cm/s): apical to basolateral; for Caco-2 A2B (10^−6 cm/s) / Caco-2 B2A (10^−6 cm/s): 2 hours, pH 7.4; for Caco-2 B2A (10^−6 cm/s): basolateral to apical
Method in brief: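 Caco-2 monolayers were grown 21–28 days on PET inserts and run in duplicate in HBSS with 10 mM HEPES, pH 7.4. Test compound was dosed bidirectionally at […] for 2 h at 37 °C; quantification was by LC-MS/MS. Papp and efflux ratio (B-A/A-B) were calculated, with lucifer yellow monolayer integrity checks.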

[3] = tested on: human hepatocyte; assay: Human hepatocyte stability, predicted hepatic clearance (h-Hept CL predict); type: in vitro ADME; conditions: human hepatocytes, 0.5×10^6 cells/mL, 1 μM, values without asterisk
Method in brief: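 Cryopreserved human hepatocytes, 0.5×10^6 viable cells/mL in William's E/GlutaMAX, incubated with compound at 1 μM final, duplicates. Sampling at 0-120 min, LC/MS/MS parent loss gives t1/2, converted to CLint and scaled to predicted hepatic clearance (well-stirred model, fub assumed 1).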

T1 sequence (Q5S007 1879-2138 limits assumed): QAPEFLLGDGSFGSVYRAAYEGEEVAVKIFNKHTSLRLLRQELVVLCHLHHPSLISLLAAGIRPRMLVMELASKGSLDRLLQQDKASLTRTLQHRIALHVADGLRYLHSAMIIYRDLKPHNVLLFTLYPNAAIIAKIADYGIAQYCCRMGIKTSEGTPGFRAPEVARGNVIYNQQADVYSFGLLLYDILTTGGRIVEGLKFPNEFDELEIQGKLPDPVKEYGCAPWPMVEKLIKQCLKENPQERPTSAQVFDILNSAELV

Compound | IC50 [1] | Caco-2 ER [2] | Caco-2 A2B (10^−6 cm/s) [2] | Caco-2 B2A (10^−6 cm/s) [2] | hHep Cl (mL/min/kg) [3]
Fc1cccc(F)c1C1=Nc2c(Cl)n[nH]c2-c2cc(N3CCOCC3)ccc2N1 (single isomer, unassigned) [Example 35, 4-(3-chloro-5-(2,6-difluorophenyl)-1,6-dihydrobenzo[d]pyrazolo[3,4-f][1,3]diazepin-9-y1)morpholine] | < 1 nM | L (L (Likely)”: ER≥2.5) | H (H (High permeability)”: A2B (B2A)>5) | H (H (High permeability)”: A2B (B2A)>5) | L (L (Low Cl)”: Hep Cl (mL/min/kg)<6.3)
Cc1n[nH]c2c1N=C(c1c(F)cccc1F)Nc1ccc(N3CCO[C@H](C(C)(C)O)C3)cc1-2 (single isomer, unassigned) [Example 36] | 1 to 100 nM | L (L (Likely)”: ER≥2.5) | M (M (Moderate permeability)”: 1≤A2B (B2A)≤5) | H (H (High permeability)”: A2B (B2A)>5) | L (L (Low Cl)”: Hep Cl (mL/min/kg)<6.3)
Cc1n[nH]c2c1N=C(c1c(F)cccc1F)Nc1c-2cc(N2CCO[C@@H](C(C)(C)O)C2)nc1C (single isomer, unassigned) [Example 39] | < 1 nM | L (L (Likely)”: ER≥2.5) | M (M (Moderate permeability)”: 1≤A2B (B2A)≤5) | H (H (High permeability)”: A2B (B2A)>5) | L (L (Low Cl)”: Hep Cl (mL/min/kg)<6.3)
Cc1n[nH]c2c1N=C(c1c(F)cccc1F)Nc1cnc(N3CCS(=O)(=O)CC3)cc1-2 [Example 2, 4-[8-(2,6-difluorophenyl)-5-methyl-3,4,7,9,12-pentazatricyclo[8.4.0.02,6]tetradeca-1(10),2(6),4,7,11,13-hexaen-13-y1]-1,4-thiazinane 1,1-dioxide] | < 1 nM | L (L (Likely)”: ER≥2.5) | L (L (Low permeability)”: A2B (B2A)<1) | H (H (High permeability)”: A2B (B2A)>5) | L (L (Low Cl)”: Hep Cl (mL/min/kg)<6.3)
Cc1n[nH]c2c1N=C(c1c(F)cccc1F)Nc1cnc(N3C[C@@H]4C[C@H]3CO4)cc1-2 [Example 6, (1S,4S)-5-[8-(2,6-difluorophenyl)-5-methyl-3,4,7,9,12-pentazatricyclo[8.4.0.02,6]tetradeca-1(10),2(6),4,7,11,13-hexaen-13-y1]-2-oxa-5-azabicyclo[2.2.1]heptane] | 1 to 100 nM | L (L (Likely)”: ER≥2.5) | M (M (Moderate permeability)”: 1≤A2B (B2A)≤5) | H (H (High permeability)”: A2B (B2A)>5) | L (L (Low Cl)”: Hep Cl (mL/min/kg)<6.3)
[2H]C1([2H])OC([2H])([2H])C([2H])([2H])N(c2cc3c(cn2)NC(c2c(F)cccc2F)=Nc2c(C)n[nH]c2-3)C1([2H])[2H] [Example 14, 2,2,3,3,5,5,6,6-octadeuterio-4-[8-(2,6-difluorophenyl)-5-methyl-3,4,7,9,12-pentazatricyclo[8.4.0.02,6]tetradeca-1(10),2(6),4,7,11,13-hexaen-13-yl]morpholine] | < 1 nM | L (L (Likely)”: ER≥2.5) | H (H (High permeability)”: A2B (B2A)>5) | H (H (High permeability)”: A2B (B2A)>5) | L (L (Low Cl)”: Hep Cl (mL/min/kg)<6.3)
Cc1n[nH]c2c1N=C(c1c(F)cccc1F)Nc1cnc(N3CCC[C@@H](C#N)C3)cc1-2 [Example 18, (3R)-1-[8-(2,6-difluorophenyl)-5-methyl-3,4,7,9,12-pentazatricyclo[8.4.0.02,6]tetradeca-1(10),2(6),4,7,11,13-hexaen-13-yl]piperidine-3-carbonitrile] | < 1 nM | L (L (Likely)”: ER≥2.5) | M (M (Moderate permeability)”: 1≤A2B (B2A)≤5) | H (H (High permeability)”: A2B (B2A)>5) | L (L (Low Cl)”: Hep Cl (mL/min/kg)<6.3)
[2H]C1([2H])OC([2H])([2H])C([2H])([2H])N(c2cc3c(cn2)NC(c2c(F)cccc2F)=Nc2cn[nH]c2-3)C1([2H])[2H] [Example 20, 2,2,3,3,5,5,6,6-octadeuterio-4-[8-(2,6-difluorophenyl)-3,4,7,9,12-pentazatricyclo[8.4.0.02,6]tetradeca-1(10),2(6),4,7,11,13-hexaen-13-yl]morpholine] | < 1 nM | L (L (Likely)”: ER≥2.5) | M (M (Moderate permeability)”: 1≤A2B (B2A)≤5) | H (H (High permeability)”: A2B (B2A)>5) | L (L (Low Cl)”: Hep Cl (mL/min/kg)<6.3)
Fc1cccc(F)c1C1=Nc2c(Cl)n[nH]c2-c2cc(N3CCOCC3)ncc2N1 [Example 23, 4-(3-chloro-5-(2,6-difluorophenyl)-1,6-dihydropyrazolo[4,3-d]pyrido[4,3-f][1,3]diazepin-9-yl)morpholine] | < 1 nM | L (L (Likely)”: ER≥2.5) | M (M (Moderate permeability)”: 1≤A2B (B2A)≤5) | H (H (High permeability)”: A2B (B2A)>5) | L (L (Low Cl)”: Hep Cl (mL/min/kg)<6.3)
C[C@H]1CN(c2cc3c(cn2)NC(c2c(F)cccc2F)=Nc2c(Cl)n[nH]c2-3)C[C@H](C)O1 [Example 26, (2S,6S)-4-(3-chloro-5-(2,6-difluorophenyl)-1,6-dihydropyrazolo[4,3-d]pyrido[4,3-f][1,3]diazepin-9-yl)-2,6-dimethylmorpholine] | < 1 nM | L (L (Likely)”: ER≥2.5) | H (H (High permeability)”: A2B (B2A)>5) | H (H (High permeability)”: A2B (B2A)>5) | I (I (Intermediate Cl)”: 6.3≤Hep Cl (mL/min/kg)≤14.7)
[2H]C([2H])([2H])c1n[nH]c2c1N=C(c1c(F)cccc1F)Nc1cnc(N3CCO[C@H](C)C3)cc1-2 [Example 27, (2R)-4-[8-(2,6-difluorophenyl)-5-(trideuteriomethyl)-3,4,7,9,12-pentazatricyclo[8.4.0.02,6]tetradeca-1(10),2(6),4,7,11,13-hexaen-13-y1]-2-methyl-morpholine] | < 1 nM | L (L (Likely)”: ER≥2.5) | H (H (High permeability)”: A2B (B2A)>5) | H (H (High permeability)”: A2B (B2A)>5) | L (L (Low Cl)”: Hep Cl (mL/min/kg)<6.3)
Cc1n[nH]c2c1N=C(c1c(F)cccc1F)Nc1cnc(-c3cnn(CC(F)F)c3)cc1-2 [Example 28, 13-[1-(2,2-difluoroethyl)pyrazol-4-y1]-8-(2,6-difluorophenyl)-5-methyl-3,4,7,9,12-pentazatricyclo[8.4.0.02,6]tetradeca-1(10),2(6),4,7,11,13-hexaene] | < 1 nM | L (L (Likely)”: ER≥2.5) | M (M (Moderate permeability)”: 1≤A2B (B2A)≤5) | H (H (High permeability)”: A2B (B2A)>5) | L (L (Low Cl)”: Hep Cl (mL/min/kg)<6.3)
Fc1cccc(F)c1C1=Nc2cn[nH]c2-c2cc(N3CCOCC3)ncc2N1 [Example 33, 4-[8-(2,6-difluorophenyl)-3,4,7,9,12-pentazatricyclo[8.4.0.02,6]tetradeca-1(10),2(6),4,7,11,13-hexaen-13-yl]morpholine] | < 1 nM | L (L (Likely)”: ER≥2.5) | M (M (Moderate permeability)”: 1≤A2B (B2A)≤5) | H (H (High permeability)”: A2B (B2A)>5) | L (L (Low Cl)”: Hep Cl (mL/min/kg)<6.3)
Cc1n[nH]c2c1N=C(c1c(F)cccc1F)Nc1c-2cc(N2CCO[C@@H](CO)C2)nc1C [Example 37, (R)-(4-(5-(2,6-difluorophenyl)-3,7-dimethyl-1,6-dihydropyrazolo[4,3-d]pyrido[4,3-f][1,3]diazepin-9-yl)morpholin-2-y1)methanol] | < 1 nM | L (L (Likely)”: ER≥2.5) | M (M (Moderate permeability)”: 1≤A2B (B2A)≤5) | H (H (High permeability)”: A2B (B2A)>5) | L (L (Low Cl)”: Hep Cl (mL/min/kg)<6.3)
Cc1n[nH]c2c1N=C(c1c(F)cccc1F)Nc1c-2cc(N2CCC(C)(O)CC2)nc1C [Example 41, 1-(5-(2,6-difluorophenyl)-3,7-dimethyl-1,6-dihydropyrazolo[4,3-d]pyrido[4,3-f][1,3]diazepin-9-yl)-4-methylpiperidin-4-ol] | 1 to 100 nM | L (L (Likely)”: ER≥2.5) | M (M (Moderate permeability)”: 1≤A2B (B2A)≤5) | H (H (High permeability)”: A2B (B2A)>5) | I (I (Intermediate Cl)”: 6.3≤Hep Cl (mL/min/kg)≤14.7)
Cn1cc(-c2cc3c(cn2)NC(c2c(F)cccc2F)=Nc2c(Cl)n[nH]c2-3)cn1 [Example 54, 3-chloro-5-(2,6-difluorophenyl)-9-(1-methyl-1H-pyrazol-4-yl)-1,6-dihydropyrazolo[4,3-d]pyrido[4,3-f][1,3]diazepine] | < 1 nM | L (L (Likely)”: ER≥2.5) | M (M (Moderate permeability)”: 1≤A2B (B2A)≤5) | H (H (High permeability)”: A2B (B2A)>5) | I (I (Intermediate Cl)”: 6.3≤Hep Cl (mL/min/kg)≤14.7)

From patent US20240228493A1, “LRRK2 INHIBITORS AND USES THEREOF” (NEURON23, ICN., priority 2022, published 2024)
